{
  "source": "patent EP3858439A1",
  "about": "(priority 2020, dated 2021)",
  "note": "Where a name gives a salt, the structure may show the parent alone.",
  "data": [
    {"molecular_target": "T1, human µ-opioid receptor (Homo sapiens, UniProt P35372)", "T1 construct": "expressed in transfected cells; host or cells: CHO-K1", "T1 sequence (P35372 whole entry)": "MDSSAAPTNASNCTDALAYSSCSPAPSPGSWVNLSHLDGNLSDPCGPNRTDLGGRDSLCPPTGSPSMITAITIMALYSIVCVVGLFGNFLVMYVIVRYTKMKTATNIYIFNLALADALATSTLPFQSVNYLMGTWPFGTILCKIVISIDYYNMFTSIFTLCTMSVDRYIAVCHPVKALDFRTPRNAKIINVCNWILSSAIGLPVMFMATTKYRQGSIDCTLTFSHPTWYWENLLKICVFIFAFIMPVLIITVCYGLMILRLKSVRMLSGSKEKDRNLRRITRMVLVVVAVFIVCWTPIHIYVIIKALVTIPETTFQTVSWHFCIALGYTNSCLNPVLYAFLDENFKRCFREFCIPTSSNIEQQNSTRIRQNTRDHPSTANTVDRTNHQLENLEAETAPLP", "experiment": "Binding assay to human µ-opioid receptor ([3H]-DAMGO displacement)", "conditions": "not given", "protocol": "(§1) Binding assay to human µ-opioid receptor\n(§2) Transfected CHO-K1 cell membranes (20 µg) were incubated with [^3H]-DAMGO (1 nM) in assay buffer containing Tris-HCl 50 mM, MgCl2 5 mM at pH 7.4.\n(§3) Plates were incubated at 27 °C for 60 min. After the incubation period, the reaction mixture was then transferred to MultiScreen HTS, FC plates (Millipore), filtered and plates were washed 3 times with ice-cold 10 mM Tris-HCl (pH 7.4).\n(§4) Filters were dried and counted at approximately 40% efficiency in a MicroBeta scintillation counter (Perkin-Elmer) using EcoScint liquid scintillation cocktail.", "units": {"Ki": "nM"}, "values": [
      {"smiles": "CNCC(Cc1cccc(F)c1)C(=O)N1CCC(c2ccccc2)(N(C)C)CC1", "note": "(stereo not drawn) [Example 52, 1-(4-(dimethylamino)-4-phenylpiperidin-1-yl)-2-(3-fluorobenzyl)-3-(methylamino) propan-1-one]", "Ki": "< 100"},
      {"smiles": "CNCC(Cc1ccccc1C#N)C(=O)N1CCC(c2ccccc2)(N(C)C)CC1", "note": "(stereo not drawn) [Example 55, 2-(3-(4-(dimethylamino)-4-phenylpiperidin-1-yl)-2-((methylamino)methyl)-3-oxopropyl)benzonitrile dihydrochloride]", "Ki": "100 to 500"},
      {"smiles": "CNC[C@H](C(=O)N1CCC(c2ccccc2)(N(C)C)CC1)[C@H](C)c1ccccc1", "note": "[Example 87, (2R,3S)-1-(4-(dimethylamino)-4-phenylpiperidin-1-yl)-2-((methylamino)methyl)-3-phenylbutan-1-one]", "Ki": "100 to 500"},
      {"smiles": "CNCCC(Cc1ccccc1)C(=O)N1CCC(c2ccccc2)(N(C)C)CC1", "note": "(stereo not drawn) [Example 31, 2-benzyl-1-(4-(dimethylamino)-4-phenylpiperidin-1-yl)-4-(methylamino)butan-1-one dihydrochloride]", "Ki": "100 to 500"},
      {"smiles": "Cc1ccccc1CC(CN)C(=O)N1CCC(c2ccccc2)(N(C)C)CC1", "note": "(stereo not drawn) [Example 75, 3-Amino-1-(4-(dimethylamino)-4-phenylpiperidin-1-yl)-2-(2-methylbenzyl)propan-1-one dihydrochloride]", "Ki": "100 to 500"}
    ]},
    {"molecular_target": "T1, human µ-opioid receptor", "experiment": "Binding assay to human µ-opioid receptor ([3H]-DAMGO displacement)", "conditions": "Table 2; transfected CHO-K1 cell membranes, [3H]-DAMGO 1 nM, 60 min at 27 °C; read-out: Binding µ", "protocol": "as §1, §2, §3, §4", "units": {"Ki": "nM"}, "values": [
      {"smiles": "CNC[C@@H](C(=O)N1CCC(c2ccccc2)(N(C)C)CC1)[C@@H](C)c1ccccc1", "note": "[Example 1, (2S,3R)-1-(4-(Dimethylamino)-4-phenylpiperidin-1-yl)-2-((methylamino)methyl)-3-phenylbutan-1-one dihydrochloride]", "Ki": "< 100"},
      {"smiles": "C[C@@H](N)[C@@H](Cc1ccccc1)C(=O)N1CCC(c2ccccc2)(N(C)C)CC1", "note": "[Example 49, (2R,3R)-3-amino-2-benzyl-1-(4-(dimethylamino)-4-phenylpiperidin-1-yl)butan-1-one dihydrochloride]", "Ki": "100 to 500"},
      {"smiles": "CC[C@@H](c1cccc(F)c1)[C@@H](CNC)C(=O)N1CCC(c2ccccc2)(N(C)C)CC1", "note": "[Example 21, (2S,3R)-1-(4-(dimethylamino)-4-phenylpiperidin-1-yl)-3-(3-fluorophenyl)-2-((methylamino)methyl)pentan-1-one]", "Ki": "< 100"},
      {"smiles": "CC[C@@H](c1ccccc1)[C@@H](CNC)C(=O)N1CC(c2ccccc2)(N(C)C)C1", "note": "[Example 19, (2S,3R)-1-(3-(dimethylamino)-3-phenylazetidin-1-yl)-2-((methylamino)methyl)-3-phenylpentan-1-one dihydrochloride]", "Ki": "> 500"},
      {"smiles": "CNC[C@@H](C(=O)N1CCC(c2ccc(F)cc2)(N(C)C)CC1)[C@@H](C)c1ccccc1", "note": "[Example 2, (2S,3R)-1-(4-(dimethylamino)-4-(4-fluorophenyl)piperidin-1-yl)-2-((methylamino)methyl)-3-phenylbutan-1-one]", "Ki": "< 100"},
      {"smiles": "CC[C@@H](c1cccc(Cl)c1)[C@@H](CNC)C(=O)N1CCC(c2ccccc2)(N(C)C)CC1", "note": "[Example 67, (2S,3R)-3-(3-chlorophenyl)-1-(4-(dimethylamino)-4-phenylpiperidin-1-yl)-2-((methylamino)methyl)pentan-1-one]", "Ki": "< 100"},
      {"smiles": "CC[C@@H](c1ccccc1)[C@@H](CN)C(=O)N1CCC(c2ccccc2)(N(C)C)CC1", "note": "[Example 8, (2S,3R)-2-(aminomethyl)-1-(4-(dimethylamino)-4-phenylpiperidin-1-yl)-3-phenylpentan-1-one dihydrochloride]", "Ki": "< 100"}
    ]}
  ]
}
